Test results published in paper PMC9297976 (Journal of Applied Toxicology, 2021).

Tests used:
medaka Esr1 (mEsr1) [1] = target: T1, medaka Esr1 (mEsr1) (Oryzias latipes, UniProt P50241); assay: Medaka Esr1 reporter gene assay, antagonist assay; type: cell-based, Japanese medaka (Oryzias latipes)
T1 sequence (P50241 1-620): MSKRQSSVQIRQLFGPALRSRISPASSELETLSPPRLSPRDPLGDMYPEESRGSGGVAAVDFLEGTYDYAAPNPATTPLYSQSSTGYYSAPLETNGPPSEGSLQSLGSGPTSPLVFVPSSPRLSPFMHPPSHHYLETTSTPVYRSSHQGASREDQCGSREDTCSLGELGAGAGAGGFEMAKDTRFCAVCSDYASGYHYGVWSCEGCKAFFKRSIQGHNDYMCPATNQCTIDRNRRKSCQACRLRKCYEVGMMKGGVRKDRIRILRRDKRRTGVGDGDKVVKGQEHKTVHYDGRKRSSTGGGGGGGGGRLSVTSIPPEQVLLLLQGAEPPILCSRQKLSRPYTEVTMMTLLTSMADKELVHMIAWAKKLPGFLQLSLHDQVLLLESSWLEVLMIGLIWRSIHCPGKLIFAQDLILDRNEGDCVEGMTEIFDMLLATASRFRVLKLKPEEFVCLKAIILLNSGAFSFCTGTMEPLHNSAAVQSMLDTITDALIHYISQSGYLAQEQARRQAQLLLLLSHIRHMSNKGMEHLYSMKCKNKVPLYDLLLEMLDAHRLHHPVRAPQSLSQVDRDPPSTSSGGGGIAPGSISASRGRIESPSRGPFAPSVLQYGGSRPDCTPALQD

[2] = system: Japanese medaka (Oryzias latipes); assay: Fish Short‐Term Reproduction Assay; type: in vivo; details: for LOECREPRO: LOEC on reproduction (fecundity and/or fertility); for minimal effective concentration: Oryzias latipes, 504 h, read-out: LOECmVTG; for Fertility rate (in words): chemicals with significant decrease of number of total eggs; for LOECREPRO (reduction in fecundity or fertility): concentrations without overt toxicity; for LOECTOX: lowest observed effect concentration on mortality; for GSI Female / GSI Male / HSI Female / HSI Male / Length Female / Length Male / Weight Female / Weight Male: completion of exposure
medaka Esr1 (mEsr1) [3] = target: T1, medaka Esr1 (mEsr1); assay: cell-based; design: species or system Japanese medaka (Oryzias latipes)
medaka ARβ (mArβ) [4] = target: T2, medaka ARβ (mArβ) (Oryzias latipes, UniProt D1MV73); assay: Medaka ARβ reporter gene assay, antagonist assay; type: cell-based, Japanese medaka (Oryzias latipes)
T2 sequence (D1MV73 1-744): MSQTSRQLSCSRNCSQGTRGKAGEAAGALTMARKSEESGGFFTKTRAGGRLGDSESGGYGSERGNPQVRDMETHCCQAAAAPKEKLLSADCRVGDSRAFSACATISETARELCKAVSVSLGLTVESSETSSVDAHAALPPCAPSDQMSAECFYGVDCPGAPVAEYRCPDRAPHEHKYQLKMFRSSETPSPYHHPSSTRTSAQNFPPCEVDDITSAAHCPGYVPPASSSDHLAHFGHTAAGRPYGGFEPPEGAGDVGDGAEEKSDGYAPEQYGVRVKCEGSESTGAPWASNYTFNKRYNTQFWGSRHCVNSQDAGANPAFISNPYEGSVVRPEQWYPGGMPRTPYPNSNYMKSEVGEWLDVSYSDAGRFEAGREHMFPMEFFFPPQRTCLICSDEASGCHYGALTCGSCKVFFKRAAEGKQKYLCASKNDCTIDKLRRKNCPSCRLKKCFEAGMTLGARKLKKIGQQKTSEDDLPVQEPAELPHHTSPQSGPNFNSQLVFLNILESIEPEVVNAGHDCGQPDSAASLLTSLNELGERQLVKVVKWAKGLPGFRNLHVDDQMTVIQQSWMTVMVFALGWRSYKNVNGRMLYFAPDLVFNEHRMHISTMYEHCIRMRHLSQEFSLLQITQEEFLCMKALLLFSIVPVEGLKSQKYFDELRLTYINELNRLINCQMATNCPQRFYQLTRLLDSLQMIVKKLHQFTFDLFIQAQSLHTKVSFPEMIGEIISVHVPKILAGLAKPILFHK

medaka ARβ (mArβ) [5] = target: T2, medaka ARβ (mArβ); assay: Medaka ARβ reporter gene assay, agonist assay; type: cell-based, Japanese medaka (Oryzias latipes)
[6] = mode of action in which IC50 or IC30 was obtained in RGA
[7] = measured concentration 0.349 mg/L
[8] = measured concentration 1.02 mg/L
[9] = 1,009 ng/L measured, 21 d, sig. ↑ vs control
[10] = measured concentration 112 ng/L
[11] = measured concentration 272 ng/L
[12] = measured concentration 1,009 ng/L

## CCNc1nc(Cl)nc(NC(C)(C)C#N)n1 [CZ, Cyanazine]
Medaka Esr1 (mEsr1) [1]
  IC50: 610 nM
Medaka Esr1 (mEsr1) [1]; antagonist assays
  Antagonistic activity on mEsr1 (in words): inhibited the transcriptional activity on mEsr1 by E2
Medaka Esr1 (mEsr1) [1]; [6]
  In vitro positive: aEsr: aEsr
[2]; 0.349 mg/L measured, 21 d
  Fertility rate: 80 ± 19%
  Hepatic VTG, female: 2,550 ± 896 ng/mg‐liver
  Hepatic VTG, male: 0.5 ± 0.0 ng/mg‐liver
  Mortality: 4.2%
  Mortality, number of dead fish: 1
  Number of fertilized eggs (per female per day): 12 ± 5.8
  Number of total eggs (per female per day): 14 ± 5.1
  SSC female (joint plates with papillary processes): 0 ± 0
  SSC male (joint plates with papillary processes): 96 ± 5.9
[2]; 1.02 mg/L measured, 21 d
  Fertility rate: 71 ± 20%
  Hepatic VTG, female: 2,860 ± 679 ng/mg‐liver
  Hepatic VTG, male: 0.5 ± 0.0 ng/mg‐liver
  Mortality: 8.3%
  Mortality, number of dead fish: 2
  SSC female (joint plates with papillary processes): 0 ± 0
  SSC male (joint plates with papillary processes): 94 ± 23
[2]; 21 d
  Change of hepatic VTG levels in females (in words): did not reduce
  Fecundity, number of total eggs (in words): statistically significant decrease
[2]
  LOECREPRO: 1,020 μg/L
  minimal effective concentration: > 1.02 µg/mL
  Fertility rate (in words): no significant effect
  LOECREPRO (reduction in fecundity or fertility): 1,020 μg/L
  LOECTOX: ND (>1,020) μg/L
[2]; [7]
  GSI Female: 8.3 ± 0.9%
  GSI Male: 0.67 ± 0.11%
  HSI Female: 3.4 ± 0.69%
  HSI Male: 1.8 ± 0.18%
  Length Female: 35.8 ± 1.0 mm
  Length Male: 35.3 ± 1.1 mm
  Weight Female: 515 ± 28 mg
  Weight Male: 483 ± 50 mg
[2]; [8]
  GSI Female: 7.6 ± 0.9%
  GSI Male: 0.55 ± 0.08%
  HSI Female: 3.5 ± 0.33%
  HSI Male: 1.7 ± 0.14%
  Length Female: 35.0 ± 1.0 mm
  Length Male: 34.4 ± 0.8 mm
  Weight Female: 470 ± 49 mg
  Weight Male: 419 ± 40 mg
Medaka Esr1 (mEsr1) [3]; MAC = 1.0 × 10^−4 M
  Agonistic activity: NE (MAC = 1.0 × 10^−4 M)
Medaka ARβ (mArβ) [4]; 11‐KT spiked at 50 nM (D), MAC = 1.0 × 10^−4 M
  Antagonistic activity: NE (MAC = 1.0 × 10^−4 M)^(D)
Medaka ARβ (mArβ) [5]; MAC = 1.0 × 10^−4 M
  Agonistic activity: NE (MAC = 1.0 × 10^−4 M)

## C[C@]12CC[C@@H]3c4ccc(O)cc4CC[C@H]3[C@@H]1CCC2=O [Chemical E1, Estrone]
Medaka Esr1 (mEsr1) [1]; E2 spiked at 1.0 nM (B), MAC = 1.0 × 10^−5 M
  Antagonistic activity: NE (MAC = 1.0 × 10^−5 M)^(B)
[2]; 29 ng/L measured, 21 d
  Fertility rate: 92 ± 9.8%
  Hepatic VTG, female: 652 ± 391 ng/mg‐liver
  Hepatic VTG, male: 47.9 ± 54.0 ng/mg‐liver
  Mortality: 0.0%
  Mortality, number of dead fish: 0
  Number of fertilized eggs (per female per day): 17 ± 4.4
  Number of total eggs (per female per day): 18 ± 3.2
  SSC female (joint plates with papillary processes): 0 ± 0
  SSC male (joint plates with papillary processes): 97 ± 14
[2]; 112 ng/L measured, 21 d
  Fertility rate: 96 ± 1.3%
  Hepatic VTG, female: 977 ± 274 ng/mg‐liver
  Hepatic VTG, male: 382 ± 351 ng/mg‐liver
  Mortality: 0.0%
  Mortality, number of dead fish: 0
  Number of fertilized eggs (per female per day): 19 ± 2.4
  Number of total eggs (per female per day): 19 ± 2.6
  SSC female (joint plates with papillary processes): 0 ± 0
  SSC male (joint plates with papillary processes): 98 ± 25
[2]; 272 ng/L measured, 21 d
  Fertility rate: 96 ± 2.8%
  Hepatic VTG, female: 1,017 ± 238 ng/mg‐liver
  Mortality: 0.0%
  Mortality, number of dead fish: 0
  Number of fertilized eggs (per female per day): 16 ± 2.5
  Number of total eggs (per female per day): 17 ± 2.5
  SSC female (joint plates with papillary processes): 0 ± 0
  SSC male (joint plates with papillary processes): 85 ± 14
[2]; 272 ng/L measured, 21 d, sig. ↑ vs control
  Hepatic VTG, male: 3,649 ± 665 ng/mg‐liver
[2]; 1,009 ng/L measured, 21 d
  Fertility rate: 86 ± 3.6%
  Mortality: 0.0%
  Mortality, number of dead fish: 0
  SSC female (joint plates with papillary processes): 0 ± 0
  SSC male (joint plates with papillary processes): 85 ± 18
[2]; [9]
  Hepatic VTG, female: 1994 ± 1,480 ng/mg‐liver
  Hepatic VTG, male: 5,429 ± 687 ng/mg‐liver
[2]; 1,009 ng/L measured, 21 d, sig. ↓ vs control
  Number of total eggs (per female per day): 10 ± 2.0
[2]; 21 d
  Fecundity, number of total eggs (in words): statistically significant decrease
  LOEC, elevated hepatic VTG in males: 272 ng/L
[2]
  LOECREPRO: 1.009 µg/L
  minimal effective concentration: 0.000272 µg/mL
  Fertility rate (in words): no significant effect
  LOECREPRO (reduction in fecundity or fertility): 1.009 µg/L
  LOECTOX: ND (>1.009) μg/L
[2]; measured concentration 29 ng/L
  GSI Female: 10.7 ± 1.4%
  GSI Male: 1.15 ± 0.31%
  HSI Female: 5.4 ± 0.61%
  HSI Male: 2.0 ± 0.28%
  Length Female: 33.8 ± 1.0 mm
  Length Male: 35.8 ± 1.7 mm
  Weight Female: 454 ± 56 mg
  Weight Male: 468 ± 85 mg
[2]; [10]
  GSI Female: 11.2 ± 1.8%
  GSI Male: 1.17 ± 0.27%
  HSI Female: 5.5 ± 0.77%
  HSI Male: 2.1 ± 0.54%
  Length Female: 34.3 ± 1.6 mm
  Length Male: 36.5 ± 1.2 mm
  Weight Female: 460 ± 86 mg
  Weight Male: 481 ± 44 mg
[2]; [11]
  GSI Female: 11.3 ± 1.0%
  GSI Male: 0.84 ± 0.32%
  HSI Female: 6.0 ± 0.76%
  HSI Male: 2.7 ± 0.38%
  Length Female: 34.0 ± 1.0 mm
  Length Male: 36.5 ± 1.3 mm
  Weight Female: 417 ± 41 mg
  Weight Male: 464 ± 62 mg
[2]; [12]
  GSI Female: 11.4 ± 7.1%
  GSI Male: 0.48 ± 0.23%
  HSI Female: 5.1 ± 1.24%
  HSI Male: 3.5 ± 0.50%
  Length Female: 34.2 ± 2.1 mm
  Length Male: 35.9 ± 1.4 mm
  Weight Female: 443 ± 97 mg
  Weight Male: 468 ± 54 mg
Medaka Esr1 (mEsr1) [3]
  EC50: 5.4 nM
Medaka Esr1 (mEsr1) [3]; mode of action in which EC50 or PC10 was obtained in RGA
  In vitro positive: Esr: Esr
Medaka ARβ (mArβ) [4]; Antagonistic activity IC50, 11‐KT spiked at 50 nM (D)
  IC50: 1500 nM
Medaka ARβ (mArβ) [4]; [6]
  In vitro positive: aAr: aAr
Medaka ARβ (mArβ) [4]; transcriptional activity on mArβ by 11KT
  Antagonistic activity on mArβ (in words): inhibitory potency
Medaka ARβ (mArβ) [5]; MAC = 1.0 × 10^−5 M
  Agonistic activity: NE (MAC = 1.0 × 10^−5 M)
